Assay results published in ChEMBL document CHEMBL1142766, “4-Fluorosulfonylpiperidines: selective 5-HT2A ligands for the treatment of insomnia” (Bioorg Med Chem Lett, 2005).

Tests used:
[1] = molecular target: 5-hydroxytryptamine receptor 2A (Homo sapiens, UniProt P28223); experiment: Binding affinity against human 5-hydroxytryptamine 2A receptor
[2] = molecular target: D(2) dopamine receptor (Homo sapiens, UniProt P14416); experiment: Binding affinity against human Dopamine receptor D2
[3] = molecular target: Voltage-gated inwardly rectifying potassium channel KCNH2 (Homo sapiens, UniProt Q12809); experiment: Binding affinity against human IKr channel
Sequence of Voltage-gated inwardly rectifying potassium channel KCNH2 (Q12809 whole entry): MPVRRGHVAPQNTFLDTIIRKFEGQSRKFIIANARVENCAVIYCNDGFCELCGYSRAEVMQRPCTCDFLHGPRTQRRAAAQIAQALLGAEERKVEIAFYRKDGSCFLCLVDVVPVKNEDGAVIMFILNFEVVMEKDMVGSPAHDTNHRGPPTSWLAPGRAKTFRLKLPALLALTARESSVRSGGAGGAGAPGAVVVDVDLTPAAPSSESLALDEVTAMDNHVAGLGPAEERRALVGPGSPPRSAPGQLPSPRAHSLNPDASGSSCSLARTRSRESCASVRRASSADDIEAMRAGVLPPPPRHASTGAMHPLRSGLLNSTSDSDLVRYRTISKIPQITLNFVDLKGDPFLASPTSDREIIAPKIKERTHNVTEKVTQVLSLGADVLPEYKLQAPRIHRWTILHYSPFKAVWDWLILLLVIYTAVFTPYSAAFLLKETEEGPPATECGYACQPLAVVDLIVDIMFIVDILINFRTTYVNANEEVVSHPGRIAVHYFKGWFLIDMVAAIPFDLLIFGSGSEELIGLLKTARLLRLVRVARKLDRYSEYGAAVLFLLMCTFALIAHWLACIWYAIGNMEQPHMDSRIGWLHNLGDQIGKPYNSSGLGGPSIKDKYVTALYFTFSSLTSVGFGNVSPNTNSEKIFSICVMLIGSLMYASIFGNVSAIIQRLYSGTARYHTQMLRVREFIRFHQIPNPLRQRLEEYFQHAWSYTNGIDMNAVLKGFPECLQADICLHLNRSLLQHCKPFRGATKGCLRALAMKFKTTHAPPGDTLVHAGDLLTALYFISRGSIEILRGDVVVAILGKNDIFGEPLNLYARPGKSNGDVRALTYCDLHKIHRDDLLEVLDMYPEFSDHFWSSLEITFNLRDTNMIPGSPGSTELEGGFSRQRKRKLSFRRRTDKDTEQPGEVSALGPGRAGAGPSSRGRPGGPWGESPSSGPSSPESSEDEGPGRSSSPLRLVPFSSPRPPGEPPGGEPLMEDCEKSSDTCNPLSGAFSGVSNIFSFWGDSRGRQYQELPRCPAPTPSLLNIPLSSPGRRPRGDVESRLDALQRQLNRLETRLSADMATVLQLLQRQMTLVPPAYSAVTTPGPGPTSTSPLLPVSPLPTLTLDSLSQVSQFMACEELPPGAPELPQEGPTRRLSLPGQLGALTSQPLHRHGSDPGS

[4] = molecular target: 5-hydroxytryptamine receptor 2A (Rattus norvegicus) (UniProt P14842); experiment: In vivo occupancy at rat 5-HT2A receptor at 30 min after dosing at 10 mg/kg per orally; type: functional, organism-based
Sequence of 5-hydroxytryptamine receptor 2A (Rattus norvegicus) (P14842 whole entry): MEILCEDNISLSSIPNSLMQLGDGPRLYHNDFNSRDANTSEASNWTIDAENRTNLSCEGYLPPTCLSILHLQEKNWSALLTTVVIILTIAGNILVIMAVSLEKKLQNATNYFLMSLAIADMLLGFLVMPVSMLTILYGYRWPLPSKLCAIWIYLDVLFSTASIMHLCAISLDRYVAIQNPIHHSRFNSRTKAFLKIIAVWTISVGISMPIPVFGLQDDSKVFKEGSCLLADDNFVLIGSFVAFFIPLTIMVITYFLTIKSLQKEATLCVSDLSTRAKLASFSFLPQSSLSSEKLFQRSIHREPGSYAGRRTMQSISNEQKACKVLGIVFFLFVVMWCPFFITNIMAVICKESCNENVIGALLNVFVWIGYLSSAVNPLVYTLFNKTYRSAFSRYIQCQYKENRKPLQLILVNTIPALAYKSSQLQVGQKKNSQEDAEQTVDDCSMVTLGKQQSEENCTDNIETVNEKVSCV

[5] = molecular target: T1, 5-hydroxytryptamine receptor 2C (Homo sapiens, UniProt P28335)
T1 sequence (P28335 whole entry): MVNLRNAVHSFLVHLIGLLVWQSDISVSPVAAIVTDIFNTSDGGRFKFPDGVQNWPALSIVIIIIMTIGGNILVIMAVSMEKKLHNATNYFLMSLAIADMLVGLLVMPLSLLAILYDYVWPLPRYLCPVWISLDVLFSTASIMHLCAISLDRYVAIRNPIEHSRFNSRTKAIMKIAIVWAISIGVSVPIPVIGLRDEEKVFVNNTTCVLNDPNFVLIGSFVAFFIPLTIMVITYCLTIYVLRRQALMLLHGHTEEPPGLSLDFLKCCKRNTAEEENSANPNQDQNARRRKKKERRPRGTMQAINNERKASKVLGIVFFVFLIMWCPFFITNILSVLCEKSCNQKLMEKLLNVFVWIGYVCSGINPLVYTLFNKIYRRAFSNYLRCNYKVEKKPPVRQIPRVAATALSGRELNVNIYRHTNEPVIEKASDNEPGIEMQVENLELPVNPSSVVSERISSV
Description: Binding affinity against human 5-hydroxytryptamine 2c receptor

[6] = molecular target: 5-hydroxytryptamine receptor 2A (Rattus norvegicus, UniProt P14842); experiment: Binding affinity against rat 5-hydroxytryptamine 2A receptor
Sequence of 5-hydroxytryptamine receptor 2A (Rattus norvegicus, UniProt P14842) (P14842 whole entry): as the sequence (P14842 whole entry) above

[7] = pKa value of the compound; type: physicochemical
[8] = Bioavailability in rat; type: ADME, organism-based; conditions: in vivo
[9] = Half life period was determined; type: ADME; conditions: rat
[10] = Plasma clearance after i.v. administration in rat; type: ADME, organism-based; conditions: iv, read-out: Clp

Sequence of D(2) dopamine receptor (P14416 whole entry): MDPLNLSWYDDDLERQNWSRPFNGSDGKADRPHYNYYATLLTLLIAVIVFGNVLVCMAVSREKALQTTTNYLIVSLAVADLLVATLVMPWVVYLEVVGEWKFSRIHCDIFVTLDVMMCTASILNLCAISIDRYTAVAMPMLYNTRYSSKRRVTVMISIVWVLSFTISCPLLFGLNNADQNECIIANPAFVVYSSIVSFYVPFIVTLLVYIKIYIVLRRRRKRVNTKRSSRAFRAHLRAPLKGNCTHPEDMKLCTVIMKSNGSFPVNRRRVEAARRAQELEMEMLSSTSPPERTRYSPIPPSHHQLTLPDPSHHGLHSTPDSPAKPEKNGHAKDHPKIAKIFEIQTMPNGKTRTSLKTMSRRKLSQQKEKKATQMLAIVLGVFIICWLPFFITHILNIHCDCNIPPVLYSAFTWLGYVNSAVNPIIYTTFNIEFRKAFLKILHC
Sequence of 5-hydroxytryptamine receptor 2A (Homo sapiens, UniProt P28223) (P28223 whole entry): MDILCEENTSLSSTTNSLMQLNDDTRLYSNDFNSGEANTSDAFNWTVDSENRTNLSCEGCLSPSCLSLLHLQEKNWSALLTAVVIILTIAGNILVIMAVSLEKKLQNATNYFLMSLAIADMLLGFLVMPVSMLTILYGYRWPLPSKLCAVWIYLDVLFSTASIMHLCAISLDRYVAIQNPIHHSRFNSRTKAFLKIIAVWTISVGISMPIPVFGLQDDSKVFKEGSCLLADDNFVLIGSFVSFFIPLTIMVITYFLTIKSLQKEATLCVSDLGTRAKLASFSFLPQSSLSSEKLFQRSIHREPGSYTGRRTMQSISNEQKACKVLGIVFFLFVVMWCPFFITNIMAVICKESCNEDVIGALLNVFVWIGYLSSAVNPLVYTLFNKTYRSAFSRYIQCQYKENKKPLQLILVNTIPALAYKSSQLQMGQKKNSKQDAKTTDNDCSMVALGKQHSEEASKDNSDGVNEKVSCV

## O=S(=O)(c1ccc(-n2ccnn2)cc1)C1(F)CCN(CCc2ccc(F)cc2F)CC1
[1]
  Ki: 0.66 nM
[2]
  Ki: > 2000 nM
[3]
  Ki: > 9 µM
[4]
  Activity: 62
[5]
  Ki: > 4000 nM

## O=S(=O)(c1ccc(N2CCC2)cc1)C1(F)CCN(CCc2ccc(F)cc2F)CC1
[1]
  Ki: 1 nM
[6]
  Ki: 0.3 nM
[2]
  Ki: > 2000 nM
[4]
  Activity: 49
[5]
  Ki: 844 nM

## O=S(=O)(c1ccccc1F)C1(F)CCN(CCc2ccc(F)cc2F)CC1
[1]
  Ki: 0.32 nM
[2]
  Ki: 266 nM
[3]
  Ki: 0.398 µM
[5]
  Ki: 14 nM

## O=C(CN1CCC(S(=O)(=O)c2ccccc2)CC1)c1ccc(F)cc1F
[1]
  Ki: 2.4 nM
[6]
  Ki: 0.51 nM
[2]
  Ki: > 1500 nM
[7]
  pKa: 6.3
[3]
  Ki: 6.8 µM
[5]
  Ki: 130 nM

## O=S(=O)(c1ccccc1)C1CCN(CCc2ccc(F)cc2F)CC1
[7]
  pKa: 7.3

## O=S(=O)(c1ccc(-n2cccn2)cc1)C1(F)CCN(CCc2ccc(F)cc2F)CC1
[1]
  Ki: 2 nM
[6]
  Ki: 1.6 nM
[2]
  Ki: > 2000 nM
[3]
  Ki: > 9 µM
[4]
  Activity: 37
[5]
  Ki: > 4000 nM

## O=S(=O)(c1ccc(Cl)cc1)C1(F)CCN(CCc2ccc(F)cc2F)CC1
[1]
  Ki: 0.64 nM
[2]
  Ki: > 1000 nM

## N#Cc1ccc(S(=O)(=O)C2(F)CCN(CCc3ccc(F)cc3F)CC2)cc1
[1]
  Ki: 2.7 nM
[6]
  Ki: 1.33 nM
[2]
  Ki: 863 nM
[7]
  pKa: 6.4
[3]
  Ki: 2.7 µM
[4]
  Activity: 80
[5]
  Ki: 1490 nM

## O=S(=O)(c1cccc(F)c1)C1(F)CCN(CCc2ccc(F)cc2F)CC1
[1]
  Ki: 0.3 nM
[2]
  Ki: 791 nM
[5]
  Ki: 49 nM

## O=S(=O)(c1ccc(F)cc1)C1CCN(CCc2ccc(F)cc2F)CC1
[7]
  pKa: 7.2

## O=S(=O)(c1ccccc1)C1(F)CCN(CCc2ccc(F)cc2F)CC1
[1]
  Ki: 0.68 nM
[2]
  Ki: > 1000 nM
[3]
  Ki: 2.45 µM
[5]
  Ki: 49 nM

## O=S(=O)(c1ccc(F)cc1)C1(F)CCN(CCc2ccc(F)cc2F)CC1
[1]
  Ki: 0.39 nM
[6]
  Ki: 0.63 nM
[2]
  Ki: 313 nM
[8]
  bioavailability: 51%
[9]
  half-life: 228 min
[10]
  clearance: 69 mL/min
[7]
  pKa: 6.3
[3]
  Ki: 5.56 µM
[4]
  Activity: 98%
[5]
  Ki: 176 nM
